The record followed here is patent US6610333B1, “Feed supplement for arthropods” (Universita Degli Studi di Milano, priority 1998, dated 2003).

In test [1] the test system is membrane vesicles purified from the midgut tissue of B. mori larvae. Kind of test: Uptake of radiolabeled leucine into membrane vesicles from B. mori larval midgut. Type of test: biochemical, Bombyx mori. The settings on record: 0.2 mM test substance, 0.1 mM L-leucine, pH 10.8, 7 seconds incubation; None (control) 450 ± 20. Here is the method:
The effect of different esters and aminoesters was tested in vitro by measuring the uptake of radiolabeled leucine into membrane vesicles purified from the midgut tissue of B. mori larvae.
Uptakes were measured by incubating 10 μl of membrane vesicles and 40 μl of a isosmotic mixture buffered at pH 10.8 and containing 0.1 mM L-leucine, 30 μCi/ml of L-[3H]-leucine as a tracer and 0.2 mM of the substances indicated. Incubations were stopped after 7 seconds by 75-fold dilution in an ice-cold isotonic saline and filtration through cellulose filters (0.2 μm mesh). Filters were then counted for radioactivity in a scintillation counter and data were expressed per mg of membrane proteins. Vesicles were prepared by calcium precipitation and differential centrifugation from Bombyx mori larval midgut according to standard biochemical protocols.

The subject of the next test is Bombyx mori larvae. Kind of test: Rearing of Bombyx mori larvae on artificial diet supplemented with ester. To be noted: 130 mg per 1 kg of diet; for Percent of mortality: first three larval instars. Type of test: in vivo.

Take `CCOC(=O)[C@@H](N)CC(C)C` [Leucine ethyl ester]: the Leucine uptake in test [1] is reported as 2200 ± 75 pmol/7s/mg membrane protein.

Consider `COC(=O)[C@@H](N)CC(C)C` [Leucine methyl ester, L-leucine methyl ester], for which the “Weight of cocoon shell” value in the test with Bombyx mori larvae (Polyhybrid (28 × 15) × (10 × 14), control 0.32 ± 0.02) is given as 0.46 ± 0.03 g; in the test on Bombyx mori larvae (Race BG35, control 0.25 ± 0.02), 0.31 ± 0.01 g. Also, the Percent of mortality with Bombyx mori larvae (Polyhybrid (28 × 15) × (10 × 14), control 19) was determined as 0%; with Bombyx mori larvae (Race 21 Molucelli, control 30) it was 20%. Besides, in test [1], the Leucine uptake was 4500 ± 150 pmol/7s/mg membrane protein.

In the case of `CCC(C)CC(=O)OC` (stereo not shown) [3-methylvaleric methyl ester], the Leucine uptake in test [1] is 800 ± 30 pmol/7s/mg membrane protein.

With `CCCC[C@H](N)C(=O)OC` [Norleucine methyl ester], the Leucine uptake in test [1] is 3800 ± 100 pmol/7s/mg membrane protein.

Take `COC(=O)CCC(C)C` [4-methylvaleric methyl ester]: in test [1], the Leucine uptake was 2600 ± 80 pmol/7s/mg membrane protein.

On to `COC(=O)[C@@H](N)CCSC` [Methionine methyl ester, L-methionine methyl ester], for which the Leucine uptake in test [1] was 4000 ± 180 pmol/7s/mg membrane protein.
